# Source: patent publication US20110160180A1, “Cannabinoid Receptor Ligands” (ASTRAZENECA AB, priority 2008, published 2011)
# “And” between values parts separate entries of the source, which are not always exact repeats. Equal entries are not always repeated.
# Molecular target: Human CB1 receptor (hCB1) (Homo sapiens, UniProt P21554)
# Assay: hCB1 GTPγS binding
# Type: biochemical
# Settings: hCB1 membranes, GTPg35S binding; maximal stimulated binding determined with 10 μM Win 55,212-2
# Protocol: hCB1 and hCB2GTPγS Binding
# Human CB1 receptor from Receptor Biology (hCB1) or human CB2 receptor membranes (BioSignal) are thawed at 37° C., passed 3 times through a 25-gauge blunt-end needle and diluted in the GTPγS binding buffer (50 mM Hepes, 20 mM NaOH, 100 mM NaCl, 1 mM EDTA, 5 mM MgCl2, pH 7.4, 0.1% BSA). […] The basal and maximal stimulated binding is determined in absence and presence of 1 μM (hCB2) or 10 μM (hCB1) Win 55,212-2 respectively. The membranes are pre-incubated for 5 minutes with 56.25 μM (hCB2) or 112.5 μM (hCB1) GDP prior to distribution in plates (15 μM (hCB2) or 30 μM (hCB1) GDP final). The plates are vortexed and incubated for 60 minutes at room temperature, filtered on Unifilters GF/B (presoaked in water) with the Tomtec or Packard harvester using 3 ml of wash buffer (50 mM Tris, 5 mM MgCl2, 50 mM NaCl, pH 7.0). The filters are dried for 1 hour at 55° C. The radioactivity (cpm) is counted in a TopCount (Packard) after adding 65 μl/well of MS-20 scintillation liquid. Antagonist reversal studies are done in the same way except that (a) an agonist dose-response curve is done in the presence of a constant concentration of antagonist, or (b) an antagonist dose-response curve is done in the presence of a constant concentration of agonist.
# Chain of Human CB1 receptor (hCB1) (P21554 whole entry): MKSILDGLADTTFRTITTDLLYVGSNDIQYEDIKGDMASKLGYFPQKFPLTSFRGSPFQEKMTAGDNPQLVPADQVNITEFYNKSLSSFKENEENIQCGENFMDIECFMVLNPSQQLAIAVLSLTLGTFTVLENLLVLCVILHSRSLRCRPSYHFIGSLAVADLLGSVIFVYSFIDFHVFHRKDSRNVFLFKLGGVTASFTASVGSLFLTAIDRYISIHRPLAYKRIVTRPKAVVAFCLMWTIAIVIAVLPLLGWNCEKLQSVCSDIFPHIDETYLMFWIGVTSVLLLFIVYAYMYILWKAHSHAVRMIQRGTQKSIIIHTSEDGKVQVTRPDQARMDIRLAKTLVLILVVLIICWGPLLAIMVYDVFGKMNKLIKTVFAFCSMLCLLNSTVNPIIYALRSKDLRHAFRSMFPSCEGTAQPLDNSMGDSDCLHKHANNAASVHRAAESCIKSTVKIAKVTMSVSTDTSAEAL
row,Structure (SMILES),hCB1 EMax
1,"CCN(CC(=O)NCCF)C(=O)c1ccc2c(c1)c1c(n2C)CCC(C2CCOCC2)C1 (centres unmarked) [N-ethyl-N-(2-fluoroethylcarbamoylmethyl)-9-methyl-6-(oxan-4-yl)-5,6,7,8-tetrahydrocarbazole-3-carboxamide]",119% and 111%
2,"CNC(=O)CCCN(C)C(=O)c1ccc2c(c1)c1c(n2C)CCC(C2CCOCC2)C1 (centres unmarked) [N,9-dimethyl-N-[3-(methylcarbamoyl)propyl]-6-(oxan-4-yl)-5,6,7,8-tetrahydrocarbazole-3-carboxamide]",121%
3,"Cn1c2c(c3cc(C(=O)N4CC[C@H](C(=O)NC5CC5)C4)ccc31)CC(C1CCOCC1)CC2 (stereo partly drawn) [(3S)-N-cyclopropyl-1-[9-methyl-6-(oxan-4-yl)5,6,7,8-tetrahydrocarbazole-3-carbonyl]pyrrolidine-3-carboxamide]",127%
4,"CN(CCCC(=O)NCCF)C(=O)c1ccc2c(c1)c1c(n2C)CCC(C2CCOCC2)C1 (centres unmarked) [N-[3-(2-fluoroethylcarbamoyl)propyl]-N,9-dimethyl-6-(oxan-4-yl)-5,6,7,8-tetrahydrocarbazole-3-carboxamide]",131% and 112%
5,"Cn1c2c(c3cc(C(=O)N4CC[C@H](C(=O)NCCF)C4)ccc31)CC(C1CCOCC1)CC2 (stereo partly drawn) [(3S)-N-(2-fluoroethyl)-1-[9-methyl-6-(oxan-4-yl)5,6,7,8-tetrahydrocarbazole-3-carbonyl]pyrrolidine-3-carboxamide]",113%
6,"CCN(CC(=O)NCCO)C(=O)c1ccc2c(c1)c1c(n2S(=O)(=O)CC)CCC(C2CCOCC2)C1 (centres unmarked) [N-ethyl-9-ethylsulfonyl-N-(2-hydroxyethylcarbamoylmethyl)-6-(oxan-4-yl)-5,6,7,8-tetrahydrocarbazole-3-carboxamide]",115%
7,"CN(CC(=O)NC1CC1)C(=O)c1ccc2c(c1)c1c(n2C)CCC(C2CCOCC2)C1 (centres unmarked) [N-(cyclopropylcarbamoylmethyl)-N,9-dimethyl-6-(oxan-4-yl)-5,6,7,8-tetrahydrocarbazole-3-carboxamide]",107%
8,"CCN(CC(=O)NC1CC1)C(=O)c1ccc2c(c1)c1c(n2C)CCC(C2CCOCC2)C1 (centres unmarked) [N-(cyclopropylcarbamoylmethyl)-N-ethyl-9-methyl-6-(oxan-4-yl)-5,6,7,8-tetrahydrocarbazole-3-carboxamide]",118% and 106%
